From US7261906B2, “Anti-cancer therapy agent of arsenic hexoxide (As4O6) of a natural chemical substance and its pharmaceutical composition” (priority 1998, dated 2007)

Test: Acute toxicity, single oral administration
Format: in vivo, Rats (Sprague Dawley strain)
Conditions: for Mortality, Days after treatment 1 / Mortality, Days after treatment 2 / Mortality, Days after treatment 3 / Mortality, Days after treatment 4 / Mortality, Days after treatment 5 / Mortality, Days after treatment 6 / Mortality, Days after treatment 7 / Mortality, Days after treatment 8 / Mortality, Days after treatment 9 / Mortality, Days after treatment 10 / Mortality, Days after treatment 11 / Mortality, Days after treatment 12 / Mortality, Days after treatment 13 / Mortality, Days after treatment 14 / Mortality, Hours after treatment 1 / Mortality, Hours after treatment 2 / Mortality, Hours after treatment 3 / Mortality, Hours after treatment 4 / Mortality, Hours after treatment 5 / Mortality, Hours after treatment 6 / Final mortality / Final mortality (dead/total): male
Experimental: The acute toxicity of oral administration of HD-2 was evaluated according to toxicity assessment criteria described in Article 96-8 of Notice on Food and Drug Safety (Apr. 16, 1994). Rats (Sprague Dawley strain) were used for animal experiments. Dosage of a single, oral administration ranged from 0.4 to 1.25 g/kg body weight in male rats and 0.4 to […] body weight in female rats. General conditions of the animals, toxic symptoms, and mortality were measured every hour for the initial 6 hours following the single administration and once a day afterwards for 14 days. Body weights were measured before starting the study, 7 days after the administration, and at autopsy. Expired rats were studied to find the cause of death at autopsy. […] Some rats manifesting these clinical symptoms expired, but others recovered to normal condition within 2 to 3 days of clinical symptoms.

O1[As]2O[As]3O[As]1O[As](O2)O3 [HD-2, arsenic hexoxide (As4O6)]
Mortality, Days after treatment 1 (0.4 g/kg B.W. oral): 0 | Mortality, Days after treatment 2 (0.4 g/kg B.W. oral): 0 | Mortality, Days after treatment 3 (0.4 g/kg B.W. oral): 0 | Mortality, Days after treatment 4 (0.4 g/kg B.W. oral): 0 | Mortality, Days after treatment 5 (0.4 g/kg B.W. oral): 0 | Mortality, Days after treatment 6 (0.4 g/kg B.W. oral): 0 | Mortality, Days after treatment 7 (0.4 g/kg B.W. oral): 0 | Mortality, Days after treatment 8 (0.4 g/kg B.W. oral): 0 | Mortality, Days after treatment 9 (0.4 g/kg B.W. oral): 0 | Mortality, Days after treatment 10 (0.4 g/kg B.W. oral): 0 | Mortality, Days after treatment 11 (0.4 g/kg B.W. oral): 0 | Mortality, Days after treatment 12 (0.4 g/kg B.W. oral): 0 | Mortality, Days after treatment 13 (0.4 g/kg B.W. oral): 0 | Mortality, Days after treatment 14 (0.4 g/kg B.W. oral): 0 | Mortality, Hours after treatment 1 (0.4 g/kg B.W. oral): 0 | Mortality, Hours after treatment 2 (0.4 g/kg B.W. oral): 0 | Mortality, Hours after treatment 3 (0.4 g/kg B.W. oral): 0 | Mortality, Hours after treatment 4 (0.4 g/kg B.W. oral): 0 | Mortality, Hours after treatment 5 (0.4 g/kg B.W. oral): 0 | Mortality, Hours after treatment 6 (0.4 g/kg B.W. oral): 0 | Final mortality (0.4 g/kg B.W. oral, 14 days): 0% | Final mortality (dead/total) (0.4 g/kg B.W. oral, 14 days): 0/5 | Mortality, Days after treatment 1 (0.6 g/kg B.W. oral): 0 | Mortality, Days after treatment 2 (0.6 g/kg B.W. oral): 0 | Mortality, Days after treatment 3 (0.6 g/kg B.W. oral): 0 | Mortality, Days after treatment 4 (0.6 g/kg B.W. oral): 0 | Mortality, Days after treatment 5 (0.6 g/kg B.W. oral): 0 | Mortality, Days after treatment 6 (0.6 g/kg B.W. oral): 0 | Mortality, Days after treatment 7 (0.6 g/kg B.W. oral): 0 | Mortality, Days after treatment 8 (0.6 g/kg B.W. oral): 0 | Mortality, Days after treatment 9 (0.6 g/kg B.W. oral): 0 | Mortality, Days after treatment 10 (0.6 g/kg B.W. oral): 0 | Mortality, Days after treatment 11 (0.6 g/kg B.W. oral): 0 | Mortality, Days after treatment 12 (0.6 g/kg B.W. oral): 0 | Mortality, Days after treatment 13 (0.6 g/kg B.W. oral): 0 | Mortality, Days after treatment 14 (0.6 g/kg B.W. oral): 0 | Mortality, Hours after treatment 1 (0.6 g/kg B.W. oral): 0 | Mortality, Hours after treatment 2 (0.6 g/kg B.W. oral): 0 | Mortality, Hours after treatment 3 (0.6 g/kg B.W. oral): 0 | Mortality, Hours after treatment 4 (0.6 g/kg B.W. oral): 0 | Mortality, Hours after treatment 5 (0.6 g/kg B.W. oral): 0 | Mortality, Hours after treatment 6 (0.6 g/kg B.W. oral): 0 | Final mortality (0.6 g/kg B.W. oral, 14 days): 0% | Final mortality (dead/total) (0.6 g/kg B.W. oral, 14 days): 0/5 | Mortality, Days after treatment 1 (0.8 g/kg B.W. oral): 1 | Mortality, Days after treatment 2 (0.8 g/kg B.W. oral): 1 | Mortality, Days after treatment 3 (0.8 g/kg B.W. oral): 0 | Mortality, Days after treatment 4 (0.8 g/kg B.W. oral): 0 | Mortality, Days after treatment 5 (0.8 g/kg B.W. oral): 0 | Mortality, Days after treatment 6 (0.8 g/kg B.W. oral): 0 | Mortality, Days after treatment 7 (0.8 g/kg B.W. oral): 0 | Mortality, Days after treatment 8 (0.8 g/kg B.W. oral): 0 | Mortality, Days after treatment 9 (0.8 g/kg B.W. oral): 0 | Mortality, Days after treatment 10 (0.8 g/kg B.W. oral): 0 | Mortality, Days after treatment 11 (0.8 g/kg B.W. oral): 0 | Mortality, Days after treatment 12 (0.8 g/kg B.W. oral): 0 | Mortality, Days after treatment 13 (0.8 g/kg B.W. oral): 0 | Mortality, Days after treatment 14 (0.8 g/kg B.W. oral): 0 | Mortality, Hours after treatment 1 (0.8 g/kg B.W. oral): 0 | Mortality, Hours after treatment 2 (0.8 g/kg B.W. oral): 0 | Mortality, Hours after treatment 3 (0.8 g/kg B.W. oral): 0 | Mortality, Hours after treatment 4 (0.8 g/kg B.W. oral): 0 | Mortality, Hours after treatment 5 (0.8 g/kg B.W. oral): 0 | Mortality, Hours after treatment 6 (0.8 g/kg B.W. oral): 0 | Final mortality (0.8 g/kg B.W. oral, 14 days): 10% | Final mortality (dead/total) (0.8 g/kg B.W. oral, 14 days): 2/5 | Mortality, Days after treatment 1 (0.85 g/kg B.W. oral): 2 | Mortality, Days after treatment 2 (0.85 g/kg B.W. oral): 1 | Mortality, Days after treatment 3 (0.85 g/kg B.W. oral): 0 | Mortality, Days after treatment 4 (0.85 g/kg B.W. oral): 0 | Mortality, Days after treatment 5 (0.85 g/kg B.W. oral): 0 | Mortality, Days after treatment 6 (0.85 g/kg B.W. oral): 0 | Mortality, Days after treatment 7 (0.85 g/kg B.W. oral): 0 | Mortality, Days after treatment 8 (0.85 g/kg B.W. oral): 0 | Mortality, Days after treatment 9 (0.85 g/kg B.W. oral): 0 | Mortality, Days after treatment 10 (0.85 g/kg B.W. oral): 0 | Mortality, Days after treatment 11 (0.85 g/kg B.W. oral): 0 | Mortality, Days after treatment 12 (0.85 g/kg B.W. oral): 0 | Mortality, Days after treatment 13 (0.85 g/kg B.W. oral): 0 | Mortality, Days after treatment 14 (0.85 g/kg B.W. oral): 0 | Mortality, Hours after treatment 1 (0.85 g/kg B.W. oral): 0 | Mortality, Hours after treatment 2 (0.85 g/kg B.W. oral): 0 | Mortality, Hours after treatment 3 (0.85 g/kg B.W. oral): 0 | Mortality, Hours after treatment 4 (0.85 g/kg B.W. oral): 0 | Mortality, Hours after treatment 5 (0.85 g/kg B.W. oral): 0 | Mortality, Hours after treatment 6 (0.85 g/kg B.W. oral): 0 | Final mortality (0.85 g/kg B.W. oral, 14 days): 60% | Final mortality (dead/total) (0.85 g/kg B.W. oral, 14 days): 3/5 | Mortality, Days after treatment 1 (1.25 g/kg B.W. oral): 3 | Mortality, Days after treatment 2 (1.25 g/kg B.W. oral): 1 | Mortality, Days after treatment 3 (1.25 g/kg B.W. oral): 0 | Mortality, Days after treatment 4 (1.25 g/kg B.W. oral): 0 | Mortality, Days after treatment 5 (1.25 g/kg B.W. oral): 0 | Mortality, Days after treatment 6 (1.25 g/kg B.W. oral): 0 | Mortality, Days after treatment 7 (1.25 g/kg B.W. oral): 0 | Mortality, Days after treatment 8 (1.25 g/kg B.W. oral): 0 | Mortality, Days after treatment 9 (1.25 g/kg B.W. oral): 0 | Mortality, Days after treatment 10 (1.25 g/kg B.W. oral): 0 | Mortality, Days after treatment 11 (1.25 g/kg B.W. oral): 0 | Mortality, Days after treatment 12 (1.25 g/kg B.W. oral): 0 | Mortality, Days after treatment 13 (1.25 g/kg B.W. oral): 0 | Mortality, Days after treatment 14 (1.25 g/kg B.W. oral): 0 | Mortality, Hours after treatment 1 (1.25 g/kg B.W. oral): 0 | Mortality, Hours after treatment 2 (1.25 g/kg B.W. oral): 0 | Mortality, Hours after treatment 3 (1.25 g/kg B.W. oral): 0 | Mortality, Hours after treatment 4 (1.25 g/kg B.W. oral): 0 | Mortality, Hours after treatment 5 (1.25 g/kg B.W. oral): 0 | Mortality, Hours after treatment 6 (1.25 g/kg B.W. oral): 0 | Final mortality (1.25 g/kg B.W. oral, 14 days): 100% | Final mortality (dead/total) (1.25 g/kg B.W. oral, 14 days): 5/5 | side effect (rats, single administration of 500 mg/kg body weight per day): did not have any side effect | Autopsy findings of rats expired during the study period (single oral administration): expanded stomach and engorged liver | Autopsy findings of rats killed at the end of the study (single oral administration, 14 days): Significant findings related to HD-2 administration were not observed | Clinical symptoms (within 3 days of single oral administration): dose-dependent depression and dyspnea
